From ChEMBL document CHEMBL1201862, “PubChem BioAssay data set” (2004) come the findings set out here.

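Cultured in 96-well plates, cells were exposed to test compound for 48 hours across five concentrations. GI50 is the concentration that inhibits growth by half.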 The source made the active and inactive calls. Rule as the data show it: active = GI50 up to about 1.1 µM and inactive = higher. Some results are limits rather than exact numbers.

Common to all, as to assay: inhibition of tumour cell growth, NCI panel, 48 h
Assay [1] concerns 786-0.
Assay [2] concerns A549.
For assay [3], the system named is EKVX.
Assay [4] relates to HCC 2998.
In assay [5] the test system is HOP-92.
Assay [6] concerns Hs-578T.
Assay [7] relates to IGROV-1.
Assay [8] has as its system K562.
The test system of assay [9] is MDA-MB-231.
The test system of assay [10] is Malme-3M.
For assay [11], the system named is OVCAR-5.
Assay [12] relates to RPMI-8226.
Assay [13] deals with SF-268.
Assay [14] relates to SK-MEL-28.
Assay [15] deals with SK-MEL-5.
The test system of assay [16] is SNB-75.
Assay [17] relates to SR.
The test system of assay [18] is TK-10.
Assay [19] has as its system NCI-H226.
The subject of assay [20] is T47D.

Regarding `CC(C)(C)n1c(=O)n2n(c1=O)Cc1cccc3cccc(c13)C2`, the GI50 is 19.5 µM (inactive) in [1]; 26.7 µM (inactive) in [2]; 15 µM (inactive) in [3]; 21.9 µM (inactive) in assay [4]; 28.1 µM (inactive) in assay [5]; 12.2 µM (inactive) in [6]. For the same molecule, the GI50 is 11.3 µM (inactive) in [7]; 10.3 µM (inactive) in assay [8]; 32.6 µM (inactive) in assay [9]; 14.2 µM (inactive) in assay [10]; 17 µM (inactive) in assay [11]; 14 µM (inactive) in assay [12]. Also, the GI50 in assay [13] is 14.5 µM (inactive); in [14] it was 21.7 µM (inactive); in assay [15], 19.5 µM (inactive); in assay [16], 0.834 µM (active); in [17], 6.7 µM (inactive); in assay [18], 29.1 µM (inactive).

Consider `CCOC(=O)c1[nH]c2cccc3c2c1CC[C@H](NC(=O)C(F)(F)F)C3=O`, for which the GI50 in assay [1] is 31.2 µM (inactive); in [2] it was 28.8 µM (inactive); in [3], < 0.01 µM (active); in assay [4], > 100 µM (inactive); in assay [5], 22.6 µM (inactive); in assay [6], 19.5 µM (inactive). The GI50 in assay [7] was 75.5 µM (inactive); in [8] it was 45.8 µM (inactive); in [9], > 100 µM (inactive); in assay [10] it was > 100 µM (inactive); in [19] it was > 100 µM (inactive); in assay [11] it was > 100 µM (inactive). Further, the GI50 in assay [12] is > 100 µM (inactive); in assay [13], 37.1 µM (inactive); in [14], < 0.01 µM (active); in assay [15] it was 22.5 µM (inactive); in [16], 24.3 µM (inactive); in [17] it was > 100 µM (inactive). Moreover, the GI50 in assay [18] was 46 µM (inactive).

In the case of `COC1=CC(c2ccc(Br)[nH]2)=N/C1=C/NCC(C)C`, the GI50 was 1.55 µM (inactive) in assay [1]; 1.46 µM (inactive) in assay [2]; 0.368 µM (active) in assay [3]; 1.34 µM (inactive) in assay [4]; 1.32 µM (inactive) in assay [5]; 2.29 µM (inactive) in assay [6]. In addition, the GI50 in assay [7] was 2.37 µM (inactive); in [8] it was 2.65 µM (inactive); in [9], 2.02 µM (inactive); in assay [10], 1.75 µM (inactive); in assay [11], 2.11 µM (inactive); in assay [12] it was 0.412 µM (active). For the same molecule, the GI50 in assay [13] is 2.26 µM (inactive); in [14] it was 2.75 µM (inactive); in [15], 1.53 µM (inactive); in assay [16], 5.18 µM (inactive); in assay [18] it was 2.55 µM (inactive).

On to `O=C1C=C2CC[C@H]3[C@@H]4CC[C@H](OC(=O)c5cccc6cc7ccccc7nc56)[C@H]4CC[C@@H]3[C@H]2CC1`, for which the GI50 was > 100 µM (inactive) in assay [1]; > 100 µM (inactive) in assay [2]; 63.1 µM (inactive) in assay [3]; > 100 µM (inactive) in [6]; > 100 µM (inactive) in assay [7]; 40.1 µM (inactive) in assay [8]. Also, the GI50 in assay [9] is 50.1 µM (inactive); in [10], > 100 µM (inactive); in assay [19], > 100 µM (inactive); in [11], > 100 µM (inactive); in assay [12] it was 93.3 µM (inactive); in assay [13], > 100 µM (inactive). For the same molecule, the GI50 in assay [14], in assay [15], in assay [16] and in assay [18] was > 100 µM (inactive) throughout.

As to `Cc1nc2c(=S)[nH]ncc2[nH]1`, the GI50 in [1], in [2], in assay [3], in assay [4], in [5] and in assay [7] was > 100 µM (inactive) in each case. Also, the GI50 is > 100 µM (inactive) in [8]; > 100 µM (inactive) in assay [9]; 94.8 µM (inactive) in assay [10]; > 100 µM (inactive) in assay [19]; > 100 µM (inactive) in assay [11]; > 100 µM (inactive) in assay [12]. The GI50 in [14], in assay [15], in assay [16], in assay [20] and in [18] was > 100 µM (inactive) each time.

As for `CCCCCCCCCCCc1cc(=O)c2c(O)cccc2o1`, the GI50 in [1] was > 100 µM (inactive); in assay [2], 61.8 µM (inactive); in [3], 56.1 µM (inactive); in assay [4] it was 66.2 µM (inactive); in [5], > 100 µM (inactive); in [7] it was > 100 µM (inactive). Also, the GI50 in assay [8] is 43.7 µM (inactive); in [10] it was > 100 µM (inactive); in assay [19], 37.8 µM (inactive); in assay [11], 88.7 µM (inactive); in [12] it was 30.6 µM (inactive); in assay [13], > 100 µM (inactive). In addition, the GI50 in assay [14] is 94.6 µM (inactive); in [15] it was 44.8 µM (inactive); in assay [16], > 100 µM (inactive); in assay [17] it was 26.1 µM (inactive); in [18], > 100 µM (inactive).

Turning to `Clc1ccc(C2SCc3nc4ccccc4n32)c(Cl)c1` (stereo not given), the GI50 in assay [1] was 17.2 µM (inactive); in assay [2], 14.5 µM (inactive); in [3], 11.6 µM (inactive); in assay [4], 14.6 µM (inactive); in [5] it was 2.83 µM (inactive); in assay [7], 15.5 µM (inactive). Also, the GI50 in assay [8] was 11 µM (inactive); in [10] it was 17.7 µM (inactive); in [19] it was 14.8 µM (inactive); in assay [11], 16.2 µM (inactive); in assay [12], 6.92 µM (inactive); in [13], 16.5 µM (inactive). Further, the GI50 in assay [14] is 16.6 µM (inactive); in [15], 7.93 µM (inactive); in assay [16], 19.3 µM (inactive); in assay [17], 14.7 µM (inactive); in assay [18] it was 14.4 µM (inactive).

On to `Cc1ccc2c3c1O[C@H]1c4[nH]c5ccccc5c4C[C@@]4(O)[C@@H](C2)N(C)CC[C@]314`, for which the GI50 in assay [1] is 15.6 µM (inactive); in assay [2], 17 µM (inactive); in [5], 9.08 µM (inactive); in assay [6] it was 0.474 µM (active); in assay [7], 18 µM (inactive); in [8] it was 16.9 µM (inactive). The GI50 in [9] is 15.2 µM (inactive); in assay [10], 13.9 µM (inactive); in assay [19] it was 9.04 µM (inactive); in assay [11], 20.7 µM (inactive); in assay [12] it was 14.1 µM (inactive); in assay [13], 17.1 µM (inactive). Further, the figures for the GI50 in assay [15] and in assay [17] were 14.5 µM (inactive) and 13.7 µM (inactive), respectively.

With `CC(C)(C)OC(=O)C1/C(=C/CBr)CN1C(=O)OC(C)(C)C` (stereo not given), the GI50 in assay [1] was 11.2 µM (inactive); in [2], 18.9 µM (inactive); in [3] it was 18 µM (inactive); in assay [4] it was 16.9 µM (inactive); in [5], 13.9 µM (inactive); in assay [6], 22 µM (inactive). Besides, the GI50 in [7] was 5.5 µM (inactive); in assay [8], 2.73 µM (inactive); in assay [10], 18 µM (inactive); in [11] it was 18.7 µM (inactive); in [12], 3.98 µM (inactive); in assay [13], 4.85 µM (inactive). The GI50 in assay [14] is 17.7 µM (inactive); in assay [15], 14.3 µM (inactive); in [18], 16.9 µM (inactive).
